Data taken from patent US10287300B2 (Merck Patent GmbH, priority 2012, dated 2019).

How the values were obtained:
[1] = target: P70S6K (T412E mutant, Millipore) (Homo sapiens (Human), UniProt P23443, T412E); assay: P70S6K enzyme assay; format: biochemical; details: 24 μM ATP, 90 min at 25° C.
Protocol: P70S6K inhibitor compounds were diluted and plated in 96 well plates. A reaction mixture including the following components was then added to the compound plate to initiate the enzyme reaction; P70S6K (3 nM, T412E mutant, Millipore) was mixed with 24 μM ATP in an assay buffer containing 100 mM Hepes (pH 7.5), 5 mM MgCl2, 1 mM DTT, 0.015% Brij and 1 μM of the substrate peptide FITC-AHA-AKRRRLSSLRA-OH (derived from the S6 ribosomal protein sequence, FITC=fluorescein isothiocyanate, AHA=6-aminohexanoic acid). The reaction was incubated for 90 min at 25° C., before the addition of 10 mM EDTA to stop the reaction. The proportion of substrate and product (phosphorylated) peptide was analysed on a Caliper Life Sciences Lab Chip 3000, using a pressure of −1.4 psi, and upstream and downstream voltages of −3000 and −700 respectively. Product peaks were resolved before substrate peaks on the resulting chromatograms.

[2] = target: His-AKT (Full Length) (Homo sapiens (Human), UniProt P31749); assay: AKT enzyme assay; format: biochemical; details: 160 uM ATP, 90 min at 25° C.
Protocol: A TTP Mosquito liquid handling instrument was used to place 125 nl of the appropriate concentration of inhibitor in 100% DMSO (for a dose response curve calculation) into each well of a 384-well plate. To this reaction components were added to a final volume of 12.5 μl: • 0.1 ng/μl His-AKT (Full Length), (Invitrogen, Part # P2999, Lot #641228C). • 160 uM ATP (Fluka, 02055) • 1 mM DTT (Sigma, D0632) • 1 mM MgCl2 (Sigma, M1028) • 1 μM substrate peptide (sequence FITC-AHA-GRPRTSSFAEG-NH2), • synthesized by Tufts Peptide Synthesis service. • 100 mM HEPES pH 7.5 (Calbiochem, 391338) • 0.015% Brij-35 (Sigma, B4184)
The reaction was incubated for 90 min at 25° C., and then stopped by the addition of 70 μl of Stop buffer (100 mM HEPES pH 7.5, 0.015% Brij-35, 10 mM EDTA (Sigma, E7889)).
The plate was read on a Caliper LC 3000 in an Off-Chip mobility shift assay format, using the following parameters for a 12-sipper chip: screening pressure −2.3 psi, upstream voltage −500, and downstream voltage −3000. These conditions caused unphosphorylated substrate and phosphorylated product peptide to resolve as separate peaks allowing direct measurement of percentage of conversion of substrate to product. The percent conversion was plotted against concentration of inhibitor to produce a sigmoidal dose response curve, from which an IC50 was calculated.

Sequence of P70S6K (T412E mutant, Millipore) (P23443 whole entry T412E): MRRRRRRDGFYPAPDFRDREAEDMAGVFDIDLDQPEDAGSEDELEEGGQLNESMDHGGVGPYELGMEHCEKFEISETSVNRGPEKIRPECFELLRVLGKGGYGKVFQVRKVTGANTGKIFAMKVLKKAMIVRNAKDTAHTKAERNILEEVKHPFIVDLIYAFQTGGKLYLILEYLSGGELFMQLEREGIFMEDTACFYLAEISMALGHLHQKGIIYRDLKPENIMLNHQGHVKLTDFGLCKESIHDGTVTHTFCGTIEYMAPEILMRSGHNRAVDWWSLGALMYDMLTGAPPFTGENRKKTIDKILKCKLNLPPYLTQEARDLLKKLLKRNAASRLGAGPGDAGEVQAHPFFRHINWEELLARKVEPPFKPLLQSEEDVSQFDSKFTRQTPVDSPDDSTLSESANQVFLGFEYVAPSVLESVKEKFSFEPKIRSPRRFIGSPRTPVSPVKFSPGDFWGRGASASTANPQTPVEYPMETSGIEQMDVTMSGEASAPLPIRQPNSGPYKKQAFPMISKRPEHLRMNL
Sequence of His-AKT (Full Length) (P31749 whole entry): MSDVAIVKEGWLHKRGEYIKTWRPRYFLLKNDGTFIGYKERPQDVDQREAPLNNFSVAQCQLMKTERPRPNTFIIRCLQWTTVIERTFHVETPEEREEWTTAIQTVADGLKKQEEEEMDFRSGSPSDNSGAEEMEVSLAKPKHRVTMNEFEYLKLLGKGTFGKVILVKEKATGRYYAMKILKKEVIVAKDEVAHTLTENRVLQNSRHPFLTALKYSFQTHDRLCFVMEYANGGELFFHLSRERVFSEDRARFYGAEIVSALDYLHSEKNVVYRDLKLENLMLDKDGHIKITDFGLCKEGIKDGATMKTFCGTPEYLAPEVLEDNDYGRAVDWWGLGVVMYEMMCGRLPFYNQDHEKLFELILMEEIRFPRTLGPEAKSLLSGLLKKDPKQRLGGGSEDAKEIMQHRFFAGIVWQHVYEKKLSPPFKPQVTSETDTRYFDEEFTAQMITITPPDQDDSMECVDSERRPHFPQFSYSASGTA

Row | SMILES | IC50 [1] [nM] | IC50 [2] [nM]
1 | CN(C)CC(c1ccc(F)c(Cl)c1)N1CCN(c2ncnc3c2NC(=O)CN3)CC1 (stereo not drawn) [Compound A54, 4-(4-(1-(3-chloro-4-fluorophenyl)-2-(dimethylamino)ethyl)piperazin-1-yl)-7,8-dihydropteridin-6(5H)-one] | > 1000 | > 1000
2 | O=C1CNc2ncnc(N3CCN(C(CN4CCC4)c4ccc(F)c(Cl)c4)CC3)c2N1 (stereo not drawn) [Compound A55, 4-(4-(2-(azetidin-1-yl)-1-(3-chloro-4-fluorophenyl)ethyl)piperazin-1-yl)-7,8-dihydropteridin-6(5H)-one] | > 1000 | > 1000
3 | O=C1CNc2ncnc(N3CCN(C(CN4CCCC4)c4ccc(F)c(Cl)c4)CC3)c2N1 (stereo not drawn) [Compound A56, 4-(4-(1-(3-chloro-4-fluorophenyl)-2-(pyrrolidin-1-yl)ethyl)piperazin-1-yl)-7,8-dihydropteridin-6(5H)-one] | > 1000 | > 1000
4 | O=C1CNc2ncnc(N3CCN(C(CN4CCCCC4)c4ccc(F)c(Cl)c4)CC3)c2N1 (stereo not drawn) [Compound A57] | > 1000 | > 1000
5 | CN(C)CC(c1ccc(Cl)c(F)c1)N1CCN(c2ncnc3c2NC(=O)CN3)CC1 (stereo not drawn) [Compound A58, 4-(4-(1-(4-chloro-3-fluorophenyl)-2-(dimethylamino)ethyl)piperazin-1-yl)-7,8-dihydropteridin-6(5H)-one] | > 1000 | 101 to 500
6 | CNCC(c1ccc(Cl)c(F)c1)N1CCN(c2ncnc3c2NC(=O)CN3)CC1 (stereo not drawn) [Compound A59, 4-(4-(1-(4-chloro-3-fluorophenyl)-2-(methylamino)ethyl)piperazin-1-yl)-7,8-dihydropteridin-6(5H)-one] | > 1000 | > 1000
7 | O=C1CNc2ncnc(N3CCN(C(CN4CCC4)c4ccc(Cl)c(F)c4)CC3)c2N1 (stereo not drawn) [Compound A60, 4-(4-(2-(azetidin-1-yl)-1-(4-chloro-3-fluorophenyl)ethyl)piperazin-1-yl)-7,8-dihydropteridin-6(5H)-one] | > 1000 | > 1000
8 | O=C1CNc2ncnc(N3CCN(C(CN4CCCC4)c4ccc(Cl)c(F)c4)CC3)c2N1 (stereo not drawn) [Compound A61, 4-(4-(1-(4-chloro-3-fluorophenyl)-2-(pyrrolidin-1-yl)ethyl)piperazin-1-yl)-7,8-dihydropteridin-6(5H)-one] | > 1000 | 101 to 500
9 | O=C1CNc2ncnc(N3CCN(C(CN4CCCCC4)c4ccc(Cl)c(F)c4)CC3)c2N1 (stereo not drawn) [Compound A62, 4-(4-(1-(4-chloro-3-fluorophenyl)-2-(piperidin-1-yl)ethyl)piperazin-1-yl)-7,8-dihydropteridin-6(5H)-one] | > 1000 | 501 to 1000
10 | CN(C)CCNCC(c1ccc(C(F)(F)F)cc1)N1CCN(c2ncnc3c2NC(=O)CN3)CC1 (stereo not drawn) [Compound A63, 4-(4-(2((2-(dimethylamino)ethyl)amino)-1-(4-(trifluoromethyl)phenyl)-ethyl)piperazin-1-yl)-7,8-dihydropteridin-6(5H)-one] | > 1000 | > 1000
11 | CN(C)CCNCC(c1cccc(C(F)(F)F)c1)N1CCN(c2ncnc3c2NC(=O)CN3)CC1 (stereo not drawn) [Compound A64, 4-(4-(2-((2-(dimethylamino)ethyl)amino)-1-(3-(trifluoromethyl)phenyl)-ethyl)piperazin-1-yl)-7,8-dihydropteridin-6(5H)-one] | > 1000 | > 1000
12 | Cc1ccc(C(CNCCN(C)C)N2CCN(c3ncnc4c3NC(=O)CN4)CC2)cc1 (stereo not drawn) [Compound A65, 4-(4-(2-((2-(dimethylamino)ethyl)amino)-1-(p-tolyl)ethyl)piperazin-1-yl)-7,8-dihydropteridin-6(5H)-one] | > 1000 | > 1000
